Results as given in patent publication US10077241B2 (Janssen Pharmaceutica NV, priority 2014, dated 2018).

How the values were obtained:
[1] = target: T1, TGR5 (NCI-H716 cell line) (Homo sapiens, UniProt Q8TDU6); test: NCI-H716 cAMP Agonist EC50 Determination
T1 sequence (Q8TDU6 1-330): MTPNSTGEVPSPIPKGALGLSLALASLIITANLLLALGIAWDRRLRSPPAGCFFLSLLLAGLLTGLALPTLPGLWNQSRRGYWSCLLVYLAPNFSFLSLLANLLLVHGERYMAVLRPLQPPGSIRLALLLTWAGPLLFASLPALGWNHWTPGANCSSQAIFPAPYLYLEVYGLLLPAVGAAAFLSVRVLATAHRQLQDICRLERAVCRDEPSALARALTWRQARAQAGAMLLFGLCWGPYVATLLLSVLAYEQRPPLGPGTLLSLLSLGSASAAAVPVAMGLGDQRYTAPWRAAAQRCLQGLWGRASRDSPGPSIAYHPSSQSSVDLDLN

TGR5 (STC1 cell line) = target: T2, TGR5 (STC1 cell line) (Mus musculus, UniProt Q80SS6); test: STC1 cAMP Agonist EC50 Determination
T2 sequence (Q80SS6 1-329): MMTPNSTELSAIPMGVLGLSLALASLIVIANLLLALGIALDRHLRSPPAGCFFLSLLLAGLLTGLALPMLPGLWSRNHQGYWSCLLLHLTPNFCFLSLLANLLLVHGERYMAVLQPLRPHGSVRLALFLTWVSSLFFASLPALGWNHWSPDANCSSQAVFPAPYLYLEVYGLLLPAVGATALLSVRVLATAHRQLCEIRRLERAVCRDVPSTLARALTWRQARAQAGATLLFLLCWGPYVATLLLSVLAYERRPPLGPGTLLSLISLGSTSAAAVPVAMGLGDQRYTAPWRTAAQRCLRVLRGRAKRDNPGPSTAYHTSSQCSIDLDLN
Experimental: Cell stocks were maintained and grown in a sub-confluent state using standard cell culture procedures. The day before the experiment, the cells were harvested with non-enzymatic cell dissociation buffer and resuspended in complete growth media at 4E5 c/ml. […] The seeded plates were incubated overnight at 37° C.
On the day of the experiment, Assay Buffer containing: HBSS with Ca^2+and Mg^2+; 5 μM HEPES; 0.1% BSA; and, 0.5 μM IBMX was prepared. The growth medium was washed from the cell plates and replaced with 20 μL of Assay Buffer. […] The reaction was stopped by the addition of 20 μL 0.1% Formic Acid to all wells. Sixty minutes later 30 μL 3 M deuterated AMP was added to all wells (as a control for volume addition to the mass spec). Plates were mixed on a plate shaker for 1 min and centrifugated (5 min 3000 RPMs no brakes).
Plates were run on a 4000 QTrap triple-quadrapole Mass spectrometer in positive ion mode coupled with a Biocius RapidFire 300is. […] Two ions (cAMP and deuterated AMP were measured using Multiple Reaction Monitoring (MRM) in positive ion mode and the area under the curve (AUC) was determined for each of the ions.
The data from the Mass Spec/Rapid Plate AUC for cAMP and deuterated AMP were imported to an Excel worksheet. A Normalized signal (NS) was generated for each well=(cAMP AUC for the well/deut AMP AUC for the well)*average deut AMP AUC for the plate). nM cAMP was calculated for each well from the cAMP standard curves located on each plate by first calculating the slope and deriving the intercept (b).
EC50 values were determined from a 4-point fit (Hill equation) of a single 11-point compound dosing.

`COc1cc(C2CC(C)Cc3nc(SCc4c(F)cccc4Cl)n(-c4ccc(F)cc4)c32)ccc1Cl` (stereo not shown) [Example 61, 7-(4-chloro-3-methoxyphenyl)-2-[[(2-chloro-6-fluorophenyl)methyl]sulfanyl]-1-(4-fluorophenyl)-5-methyl-4,5,6,7-tetrahydro-1H-1,3-benzodiazole] was tested, and the EC50 [1] was > 50 µM and the EC50 (TGR5 (STC1 cell line)) was 3890 nM.

With `COc1cc(C2CCCc3nc(SCc4ccncc4F)n(-c4ccc(F)cc4)c32)ccc1Cl` (stereo not shown) [Example 51, 2-((3-fluoropyridin-4-yl)methylthio)-7-(4-chloro-3-methoxyphenyl)-1-(4-fluorophenyl)-4,5,6,7-tetrahydro-1H-benzo[d]imidazole trifluoroacetic acid] the EC50 [1] was > 50 µM and the EC50 (TGR5 (STC1 cell line)) was 5500 nM.

In the case of `CCOC(=O)CCc1cc(F)c(CSc2nc3c(n2-c2ccc(F)cc2)C(c2ccc(Cl)c(OC)c2)CCC3)c(F)c1` (stereo not shown) [Example 40, Ethyl 3-(4-((7-(4-chloro-3-methoxyphenyl)-1-(4-fluorophenyl)-4,5,6,7-tetrahydro-1H-benzo[d]imidazol-2-ylthio)methyl)-3,5-difluorophenyl)propanoate trifluoroacetic acid], the EC50 [1] is reported as > 50 µM and the EC50 (TGR5 (STC1 cell line)) is reported as 1360 nM.

An EC50 [1] of 48.4 µM and an EC50 (TGR5 (STC1 cell line)) of 690 nM were found for `COc1cc(C2CCCc3nc(SCc4c(F)cc(S(N)(=O)=O)cc4F)n(-c4ccc(F)cc4)c32)ccc1Cl` (stereo not shown) [Example 21a, 4-((7-(4-chloro-3-methoxyphenyl)-1-(4-fluorophenyl)-4,5,6,7-tetrahydro-1H-benzo[d]imidazol-2-ylthio)methyl)-3,5-difluorobenzenesulfonamide] in this work.

For `COc1ccc(C2CCCc3nc(SCc4c(F)cc(C(=O)O)cc4F)n(-c4ccc(F)cc4)c32)cc1OC` (stereo not shown) [Example 65, 4-(((7-(3,4-dimethoxyphenyl)-1-(4-fluorophenyl)-4,5,6,7-tetrahydro-1H-benzo[d]imidazol-2-yl)thi)methyl)-3,5-difluorobenzoic acid], the EC50 [1] was > 50 µM and the EC50 (TGR5 (STC1 cell line)) was 3750 nM.

With `COc1cc(C2CCCc3nc(SCc4ncccn4)n(-c4ccc(F)cc4)c32)ccc1Cl` (stereo not shown) [Example 57, 7-(4-chloro-3-methoxyphenyl)-1-(4-fluorophenyl)-2-[(pyrimidin-2-ylmethyl)sulfanyl]-4,5,6,7-tetrahydro-1H-1,3-benzodiazole trifluoroacetic acid] the EC50 [1] was > 50 µM and the EC50 (TGR5 (STC1 cell line)) was 650 nM.

An EC50 [1] of 35.2 µM and an EC50 (TGR5 (STC1 cell line)) of 910 nM were found for `COc1cccc(C2CCCc3nc(SCc4c(F)cncc4F)n(-c4ccc(F)c(OC)c4)c32)c1` (stereo not shown) [Example 72, 2-(((3,5-difluoropyridin-4-yl)methyl)thio)-1-(4-fluoro-3-methoxyphen)-7-(3-methoxyphenyl)-4,5,6,7-tetrahydro-1H-benzo[d]imidazole] in this work.

An EC50 [1] of 5.34 µM and an EC50 (TGR5 (STC1 cell line)) of 150 nM were found for `COc1ccc(C2CCCc3nc(SCc4c(F)cc(C#N)cc4F)n(-c4ccc(F)cc4)c32)cc1OC` (stereo not shown) [Example 64, 4-(((7-(3,4-dimethoxyphenyl)-1-(4-fluorophenyl)-4,5,6,7-tetrahydro-1H-benzo[d]imidazol-2-yl)thio)methyl)-3,5-difluorobenzonitrile] in this work.

An EC50 [1] of 18.8 µM and an EC50 (TGR5 (STC1 cell line)) of 90 nM were found for `COc1cc(C2(C)CCCc3nc(SCc4c(F)cc(C(=O)N5CCOCC5)cc4F)n(-c4ccc(F)cc4)c32)ccc1F` (stereo not shown) [Example 122, (3,5-difluoro-4-(((7-(4-fluoro-3-methoxyphenyl)-1-(4-fluorophenyl)-7-methyl-4,5,6,7-tetrahydro-1H-benzo[d]imidazol-2-yl)thio)methyl)phenyl) (morpholino)methanone] in this work.

In the case of `COc1cc(C2CCCc3nc(SCc4c(F)cc(CCC(N)=O)cc4F)n(-c4ccc(F)cc4)c32)ccc1Cl` (stereo not shown) [Example 45, 3-(4-((7-(4-chloro-3-methoxyphenyl)-1-(4-fluorophenyl)-4,5,6,7-tetrahydro-1H-benzo[d]imidazol-2-ylthio)methyl)-3,5-difluorophenyl)propanamide trifluoroacetic acid], the EC50 [1] is reported as > 50 µM and the EC50 (TGR5 (STC1 cell line)) is reported as 350 nM.

In the case of `COc1cc(C2CCCc3nc(SCc4c(F)cc(S(=O)(=O)NCCC[N+](C)(C)C)cc4F)n(-c4ccc(F)cc4)c32)ccc1Cl` (stereo not shown) [Example 22, 3-(4-((7-(4-chloro-3-methoxyphenyl)-1-(4-fluorophenyl)-4,5,6,7-tetrahydro-1H-benzo[d]imidazol-2-ylthio)methyl)-3,5-difluorophenylsulfonamido)-N,N,N-trimethylpropan-1-aminium 2,2,2-trifluoroacetate], the EC50 [1] is reported as > 50 µM and the EC50 (TGR5 (STC1 cell line)) is reported as 32600 nM.

With `COc1cc(C2CCCc3nc(SCc4c(F)cccc4C(F)(F)F)n(-c4ccc(F)cc4)c32)ccc1Cl` (stereo not shown) [Example 15, 7-(4-chloro-3-methoxyphenyl)-2-([[2-fluoro-6-(trifluoromethyl)phenyl]methyl]sulfanyl)-1-(4-fluorophenyl)-4,5,6,7-tetrahydro-1H-1,3-benzodiazole] the EC50 [1] was > 50 µM and the EC50 (TGR5 (STC1 cell line)) was 13300 nM.

An EC50 [1] of 17 µM and an EC50 (TGR5 (STC1 cell line)) of 50 nM were found for `COc1cc(C2(C)CCCc3nc(SCc4c(F)cc(C(=O)NCCOCCOCCOCCO)cc4F)n(-c4ccc(F)cc4)c32)ccc1F` (stereo not shown) [Example 123, 3,5-difluoro-4-(((7-(4-fluoro-3-methoxyphenyl)-1-(4-fluorophenyl)-7-methyl-4,5,6,7-tetrahydro-1H-benzo[d]imidazol-2-yl)thio)methyl)-N-(2-(2-(2-(2-hydroxyethoxy)ethoxy)ethoxy)ethyl) benzamide] in this work.

`COc1cc(C2CCCc3nc(SCc4sccc4Cl)n(-c4ccc(F)cc4)c32)ccc1Cl` (stereo not shown) [Example 58, 2-((3-chlorothiophen-2-yl)methylthio)-7-(4-chloro-3-methoxyphenyl)-1-(4-fluorophenyl)-4,5,6,7-tetrahydro-1H-benzo[d]imidazole trifluoroacetic acid] was tested, and the EC50 [1] was > 50 µM and the EC50 (TGR5 (STC1 cell line)) was 1100 nM.

For `COCCOCCOCCOCCNC(=O)c1cc(F)c(CSc2nc3c(n2-c2ccc(F)cc2)C(c2cc(OC)c(OC)c(Br)c2Br)CCC3)c(F)c1` (stereo not shown) [Example 68b, 4-(((7-(2,3-dibromo-4,5-dimethoxyphenyl)-1-(4-fluorophenyl)-4,5,6,7-tetrahydro-1H-benzo[d]imidazol-2-yl)thio)methyl)-3,5-difluoro-N-(2,5,8,11-tetraoxatridecan-13-yl) benzamide], the EC50 [1] was > 50 µM and the EC50 (TGR5 (STC1 cell line)) was 28600 nM.

With `C=C1COC(c2ccc(Cl)c(OC)c2)c2c1nc(SCc1c(F)cccc1Cl)n2-c1ccc(F)cc1` (stereo not shown) [Example 137, 4-(4-chloro-3-methoxyphenyl)-2-((2-chloro-6-fluorobenzyl)thio)-3-(4-fluorophenyl)-7-methylene-3,4,6,7-tetrahydropyrano[3,4-d]imidazole] the EC50 [1] was > 50 µM and the EC50 (TGR5 (STC1 cell line)) was 880 nM.

With `COc1cc(C2CCCc3nc(SCc4c(F)cc(CCCNC(=N)N)cc4F)n(-c4ccc(F)cc4)c32)ccc1Cl` (stereo not shown) [Example 42, 1-(3-(4-((7-(4-chloro-3-methoxyphenyl)-1-(4-fluorophenyl)-4,5,6,7-tetrahydro-1H-benzo[d]imidazol-2-ylthio)methyl)-3,5-difluorophenyl)propyl)guanidine trifluoroacetic acid] the EC50 [1] was > 50 µM and the EC50 (TGR5 (STC1 cell line)) was 530 nM.

With `COc1cc(C2CCCc3nc(SCc4c(Cl)cncc4Cl)n(-c4ccc(F)cc4)c32)ccc1Cl` (stereo not shown) [Example 54] the EC50 [1] was > 50 µM and the EC50 (TGR5 (STC1 cell line)) was 4410 nM.

An EC50 [1] of 2.65 µM and an EC50 (TGR5 (STC1 cell line)) of 410 nM were found for `COc1ccc(C2(C)CCCc3nc(SCc4nccs4)n(-c4ccc(F)cc4)c32)cc1OC` (stereo not shown) [Example 117, 2-(((7-(3,4-dimethoxyphenyl)-1-(4-fluorophenyl)-7-methyl-4,5,6,7-tetrahydro-1H-benzo[d]imidazol-2-yl)thio)methyl)thiazole] in this work.

An EC50 [1] of 47.5 µM and an EC50 (TGR5 (STC1 cell line)) of 1530 nM were found for `COc1cc(C2CCCc3nc(SCc4c(F)cc(C#N)cc4F)n(-c4ccc(F)cc4)c32)ccc1F` (stereo not shown) [Example 73, 3,5-difluoro-4-(((7-(4-fluoro-3-methoxyphenyl)-1-(4-fluorophenyl)-4,5,6,7-tetrahydro-1H-benzo[d]imidazol-2-yl)thio)methyl)benzonitrile] in this work.

With `COc1cc(C2CCCc3nc(SCc4c(F)c[n+]([O-])cc4F)n(-c4ccc(F)cc4)c32)ccc1Cl` (stereo not shown) [Example 59, 4-((7-(4-chloro-3-methoxyphenyl)-1-(4-fluorophenyl)-4,5,6,7-tetrahydro-1H-benzo[d]imidazol-2-ylthio)methyl)-3,5-difluoropyridine 1-oxide trifluoroacetic acid] the EC50 [1] was > 50 µM and the EC50 (TGR5 (STC1 cell line)) was 2020 nM.

For `COc1cc(C2CCCc3nc(SCc4c(F)cc(C(=O)O)cc4F)n(-c4ccc(F)cc4)c32)ccc1F` (stereo not shown) [Example 74, 3,5-difluoro-4-(((7-(4-fluoro-3-methoxyphenyl)-1-(4-fluorophenyl)-4,5,6,7-tetrahydro-1H-benzo[d]imidazol-2-yl)thio)methyl)benzoic acid], the EC50 [1] was > 50 µM and the EC50 (TGR5 (STC1 cell line)) was 1100 nM.

An EC50 [1] of 34.7 µM and an EC50 (TGR5 (STC1 cell line)) of 280 nM were found for `COc1cc(C2CCCc3nc(SCc4c(F)cncc4F)n(-c4ccc(F)cc4)c32)ccc1Cl` (stereo not shown) [Example 50, 7-(4-chloro-3-methoxyphenyl)-2-((3,5-difluoropyridin-4-yl)methylthio)-1-(4-fluorophenyl)-4,5,6,7-tetrahydro-1H-benzo[d]imidazole trifluoroacetic acid] in this work.
